According to patent publication US11672787B2, “Compounds as mPGES-1 inhibitors” (Khondrion IP B.V., priority 2017, dated 2023):
Structures can show the parent of a compound that is named as a salt.

Columns and labels:
[1] = test system: RAW 264.7 murine macrophage cells; test: Prostaglandin levels (ELISA) in supernatant of LPS-stimulated RAW 264.7 cells; assay type: cell-based; conditions: 1 μg/mL LPS, 24 hours, increasing concentrations
Protocol: FIG. 2. (A-C) Levels of prostaglandins (PG) PGE2 (A), PGD2 (B) and 6-keto PGF1a (C) in supernatant of RAW 264.7 murine macrophage cells exposed for 24 hours to vehicle or 1 μg/mL lipopolysaccharide (LPS), normalized on vehicle. (D-F) Levels of PGE2, PGD2 and 6-keto PGF1a in supernatant of RAW 264.7 murine macrophage cells exposed for 24 hours to vehicle or 1 μg/mL LPS, alone (set as 100%) or in combination with increasing concentrations of compound I-IVb-X (a compound of general structure (I) wherein T is of general structure (IVb), in the S,R-configuration, and wherein as per compound X the following apply: L=L^19; R^1═H; R^2—R^2′=L^3; R^3═H; indicated as KH) (D), non-selective COX inhibitor indomethacin (E) or COX-2 inhibitor celecoxib (F).
RAW264.7 cells (Sigma-Aldrich, St-Louis) were maintained in DMEM (Thermo Fisher Scientific) containing 10% FBS (Greiner Bio-one), and antibiotics (100 U/ml penicillin, 100 μg/ml streptomycin) under a humidified atmosphere of 5% CO2 at 37° C. The cells were grown to 80% confluence, scraped and then cultured in either 96-well plates (2×10^4 cells/well) or six-well plates (4×10^5 cells/well) for 6-24 hours before an experiment.
The concentration of the PGE2, PGD2 and 6-keto-PGF1α in culture medium was determined by Enzyme-Linked Immuno Sorbent Assay (ELISA) using, respectively, the PGE2 high sensitivity EIA kit (Enzo Life Science), the Prostaglandin D2-MOX ELISA Kit (Cayman Chemicals) and the 6-keto Prostaglandin F1α ELISA Kit (Cayman Chemicals), according to the manufacturer's instructions. Samples (100 μl) of culture medium from each well were harvested and diluted with the assay buffer.
RAW 264.7 macrophage cells were treated with the inflammatory stimulus LPS alone or in combination with increasing concentrations of compound I-IVb-X (a compound of general structure (I) wherein T is of general structure (IVb), in the S,R-configuration, and wherein as per compound X the following apply: L=L^19; R^1═H; R^2—R^2′=L^3; R^3═H), the NSAID indomethacin or the Coxib Celecoxib. After 24 hours incubation the levels of PGE2, PGD2 and 6-keto PGF1a were quantified in the cell supernatant by ELISA. […] Similar results were obtained with compound I-IVb-X in human primary skin fibroblasts.

mPGES-1 = target: T1, mPGES-1 (Mus musculus, UniProt Q9JM51); test: Microsomal PGES activity: conversion of PGH2 to PGE2 by microsomal fractions of LPS-treated RAW 264.7 cells; assay type: biochemical, murine; conditions: for IC50: microsomal fraction of RAW 264.7 cells treated 24 hours with LPS 1 μg/mL, conversion of PGH2 to PGE2, read-out: IC50 (inhibition of mPGES-1 enzyme activity); for mPGES-1 activity in purified microsomes: 30 minutes
T1 construct: endogenous in cells; host or cells: RAW 264.7 cells treated 24 h with 1 ug/mL LPS; 100,000 g microsomal pellet
T1 sequence (Q9JM51 1-153): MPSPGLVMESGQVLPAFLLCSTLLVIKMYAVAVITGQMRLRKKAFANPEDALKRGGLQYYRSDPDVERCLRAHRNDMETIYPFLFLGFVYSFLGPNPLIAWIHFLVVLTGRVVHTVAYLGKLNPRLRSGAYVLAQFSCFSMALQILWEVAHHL
Protocol: FIG. 6. mPGES-1 activity was assayed as conversion of PGH2 to PGE2 by microsomal fractions of RAW 264.7 cells treated for 24 hours with LPS 1 μg/mL to increase mPGES-1 expression. The microsomal fraction was exposed to increasing concentrations of compound to be tested, or 3 μM of know mPGES-1 inhibitors MK866 or PF9184 as positive controls. PGE2 level was normalized on the vehicle treated microsomal samples (100%). (A) compound I-IVb-X; (B) compound I-IVb-AE; (C) compound I-IVb-A-HCl; (D) compound I-IVb-I.
PGES activity was measured by assessment of the conversion of PGH2 to PGE2. In brief, after 24 hours incubation with 1 μg/mL LPS the cells were harvested and lysed by sonication (three times for 10 seconds each, at 1 min intervals) in 300 μl of 1 M Tris-HCl (pH 8.0). After centrifugation of the lysate at 12,000 g for 10 min at 4° C., the supernatant was collected and further centrifuged at 100,000 g for 1 h at 4° C. The pellets (microsomal membranes) were resuspended in 100 μl of 0.1M Tris-HCl, pH 8.0, containing protease inhibitors) and subjected to measurement of microsomal PGES activity. For measurement of PGES activity, an aliquot of each sample equivalent to 50 μg of protein was incubated with 2 μg of PGH2 for 60 s at 24° C. in 0.1 ml of 1 M Tris-HCl containing 2 mM glutathione (Sigma-Aldrich) and 14 μM indomethacin, in the absence or presence of the tested compounds. The reaction was terminated by the addition of 100 mM FeCl2, and further incubated at 20-25° C. for 15 min. After centrifugation of the reaction mixture, the PGE2 concentration in the supernatant was measured with the PGE2 high sensitivity EIA kit (Enzo Life Science) according to manufacturer's instructions.
RAW 264.7 macrophage cells were treated with the inflammatory stimulus LPS to increase the expression of mPGES-1. After 24 hours incubation the microsomes were isolated and exposed to increasing concentration of compound I-IVb-X or a single concentration of previously described mPGES-1 inhibitors MK866 and PF9184 for 30 minutes. The activity of mPGES-1 was then assayed in the microsomes fraction as the conversion of PGH2 to PGE2.
Using the methods as described in Example 1, additional compounds were tested. Table 1 provides an overview of the compounds that were tested, along with corresponding IC50 values. FIGS. 6B, 6C, and 6D show corresponding inhibition curves for I-IVb-AE, I-IVb-A-HCl, and I-IVb-I, respectively.

[2] = test system: human primary skin fibroblasts; test: Prostaglandin levels (ELISA) in supernatant of LPS- or IL-1β-stimulated human primary skin fibroblasts; assay type: cell-based; conditions: 24 hours
Protocol: FIG. 3. (A-B) Levels of PGE2 (A) and PGD2 (B) in supernatant of human primary skin fibroblasts exposed for 24 hours to vehicle, 1 μg/mL LPS or 1 μg/mL Interleukin-1β (IL-1β), normalized on vehicle. (C-D) Levels of PGE2 and PGD2 in supernatant of human primary skin fibroblasts exposed for 24 hours to 1 μg/mL LPS (C) or 1 μg/mL IL-1β (D) alone (set as 100%) or in combination with increasing concentrations of compound I-IVb-X (indicated as KH).
The cells were maintained in M199, HEPES (Thermo Fischer Scientific) containing 10% FBS (#758093, Greiner Bio-one), 100 IU/ml penicillin and 100 μg/ml streptomycin (#30-002-CI, Corning) under a humidified atmosphere of 5% CO2 at 37° C. The cells were passaged by trypsinization every 4-5 days until they reached the passage number 20, and then discarded. The cells were grown to 80% confluence, trypsinized and then cultured in 96-well plates (4×10^3 cells/well) 24 hours before an experiment.
The concentration of the PGE2, PGD2 and 6-keto-PGF1α in culture medium was determined by Enzyme-Linked Immuno Sorbent Assay (ELISA) using, respectively, the PGE2 high sensitivity EIA kit (Enzo Life Science), the Prostaglandin D2-MOX ELISA Kit (Cayman Chemicals) and the 6-keto Prostaglandin F1α ELISA Kit (Cayman Chemicals), according to the manufacturer's instructions. […]

[3] = single concentration (3 μM), positive controls

SMILES: COc1ccc2c(c1)c(CC(=O)O)c(C)n2C(=O)c1ccc(Cl)cc1 [indomethacin, reference compound]
- level of 6-keto PGF1a in cell supernatant [1]: dose-dependently reduced
- level of PGD2 in cell supernatant [1]: dose-dependently reduced
- level of PGE2 in cell supernatant [1]: dose-dependently reduced

SMILES: CC1=C(C)C(=O)C(CC[C@](C)(O)C(=O)N[C@H]2CN3CCC2CC3)=C(C)C1=O [I-IVb-AI-HCl]
- IC50 (mPGES-1): 726 nM

SMILES: CC1=C(C)C(=O)C(CCC(C)(O)C(=O)N[C@@H](CCCN)C(=O)O)=C(C)C1=O (stereo partly shown) [I-IVb-N]
- IC50 (mPGES-1): 10.4 nM

SMILES: CC(C)c1ccc2c(c1)c(SC(C)(C)C)c(CC(C)(C)C(=O)O)n2Cc1ccc(Cl)cc1 [MK866, reference compound]
- mPGES-1 activity in purified microsomes (mPGES-1; [3]): decreased

SMILES: O=C(Nc1ccc(-c2ccc(Cl)c(Cl)c2)cc1)C1=C(O)c2ccccc2S(=O)(=O)N1 [PF9184, reference compound]
- mPGES-1 activity in purified microsomes (mPGES-1; [3]): decreased

SMILES: CC1=C(C)C(=O)C(CC[C@](C)(O)C(=O)N[C@@H]2CCCNC2)=C(C)C1=O [I-IVb-X]
- mPGES-1 activity in purified microsomes (mPGES-1; increasing concentration of compound): decreased
- IC50 (mPGES-1): 458 nM
- level of 6-keto PGF1a in cell supernatant [1]: no effect
- level of PGD2 in cell supernatant [1]: no effect
- level of PGE2 in cell supernatant [1]: dose-dependently reduce
- level of PGE2 in supernatant ([2]; 1 μg/mL IL-1β): efficiently reduce
- level of PGE2 in supernatant ([2]; 1 μg/mL LPS): efficiently reduce

SMILES: CC1=C(C)C(=O)C(CC[C@](C)(O)C(=O)N2CCC(NC(=O)[C@H](C)N)CC2)=C(C)C1=O [I-IVb-AB-HCl]
- IC50 (mPGES-1): 238 nM

SMILES: CC1=C(C)C(=O)C(CCC(C)(O)C(=O)NCCN(C)C)=C(C)C1=O (stereo not shown) [I-IVb-I]
- IC50 (mPGES-1): 1120 nM

SMILES: CC1=C(C)C(=O)C(CC[C@](C)(O)C(=O)N[C@H]2CC[C@H](N)CC2)=C(C)C1=O [I-IVb-AE]
- IC50 (mPGES-1): 18 nM

SMILES: CC1=C(C)C(=O)C(CC[C@](C)(O)C(=O)N2CCNCC2)=C(C)C1=O [I-IVb-A-HCl]
- IC50 (mPGES-1): 1020 nM

SMILES: CC1=C(C)C(=O)C(CC[C@](C)(O)C(=O)Nc2ccc(CN)cc2)=C(C)C1=O [I-IVb-AJ-HCl]
- IC50 (mPGES-1): 1050 nM
